Reference: patent US6017958A, “Method of treating malignant tumors with thyroxine analogues having no significant hormonal activity” (Octamer, Inc., priority 1997, dated 2000)

Experiments:
[1] = tested on: iodine uptake into the thyroid; conditions: rats, as compared to thyroxine (Money et al., 1959); cited from earlier work
[2] = tested on: protein phosphatase 2A; assay: Activation of purified protein phosphatase 2A (32P-histone H1 dephosphorylation); assay type: biochemical; conditions: 50 μM, 10 min preincubation
Method: 2.1 Preparation of ^32 P-labeled Histone H1 Substrate
Histone H1 was phosphorylated with protein kinase C (Upstate Biotechnology,Inc., Lake Placid, N.Y.) in a volume of 100 μL according to standard protocols. Alternatively, histone H1 was phosphorylated with p34cdc2 kinase purified from rapidly multiplying Mytilus Edulis embryos at 4-8 stage after isolation with the p^13 -Suc agarose technique (Smythe and Newport, 1992, "Coupling of Mitosis to the Completion of S Phase in Xenopus Occurs via Modulation of the Tyrosine Kinase that Phosphorylates p34cdc2," Cell 68:787-797).
125 ng purified protein phosphatase 2A (Upstate Biotechnology, Inc., Lake Placid, N.Y.; Usui et al., 1983, J. Biol. Chem. 258:10455-10463) was preincubated with thyroxine analogue (50 μM) in buffer (20 mM MOPS or Tris, pH 7.5, 1 mM MgCl2, 60 μM β-mercaptoethanol) for 10 min. at 23° C. Total reaction volume was 20 μL. ^32 P-labeled histone H1 substrate (10 μg, 10^5 cpm) was added and the dephosphorylation reaction allowed to proceed for 5 min. at 23° C., after which time the reaction was quenched by addition of 2 μL Laeimli buffer. An identical reaction containing 125 ng untreated protein phosphatase 2A was run as a control.
Phosphorylated and dephosphorylated histone H1 were separated by gel electrophoresis (12% SDS-PAGE), bands containing phosphorylated histone H1 excised and assayed for ^32 P activity via scintillation counter.
The velocity of dephosphorylation in 5 min. is an indication of the initial velocity (Vinit) of the dephosphorylation reaction.

[3] = tested on: A-549 (lung cancer) cell extracts, esterase; assay: Esterase cleavage of DIME by A-549 cell extracts (TLC); assay type: in vitro ADME, human
Method: In the experiment shown in lines 1 and 2 the esterase activity of the extract occurs during 4 hours incubation with 1 μM DIME. […] Lines 3 and 4 depict the same experiments as in lines 1 and 2, except the cell extracts were prepared from intact cells preincubated for 24 hours with 1 μM DIME, then washed and extracted.
(a) mouse tissue homogenate (brain, kidney, liver lung) consisting of 0.2 g of tissue in 1.0 ml. of homogenization buffer (50 mM Tris (pH 7.4), 400 mM NaCl, 10 mM MgCl2, 1 mM EDTA, 0.5% NP-40, 0.5 mM PMSF) each were combined with 1.0 ml of MES buffer (100 mM ph 6.5) containing 20 μM [^14 C]-DIME (10.55 mCi/mmol), and the mixtures were incubated at 37° C. for 4 hours. Then to each tube was added sequentially ethyl acetate (1.5 ml), ammonium sulfate (900 mg) and 60% perchloric acid (160 μl), with vortexing after each addition. After standing for 10 minutes, phase separation was enhanced by benchtop centrifugation. The upper (ethyl acetate) layer was drawn off, and the lower aqueous and interphase material was extracted with a second portion of ethyl acetate (1.5 ml). The ethyl acetate extracts (combined) contained more than 90% of the total cpm present in the original incubate (ca. 4×10^5 cpm). […]

[4] = tested on: E-ras transformed bovine endothelial cells; assay: Morphology of E-ras cells; assay type: cell-based
Method: E-ras transformed bovine endothelial cells (Bauer et al., 1996, Intl. J. Oncology 8:239-252) were exposed to 10 μM DIME for […]. The DIME-treated cells (10^5 or 10^6 cells/100 μL) were injected subcutaneously into nude mice and tumor progression followed for 25 days.
Microscopic morphology of E-ras cells was examined by techniques reported earlier, Mendeleyev et al., 1997, "Structural Specificity and Tumoricidal Action of Methyl-3,5-Diiodo-4-(4'- Methoxyphenoxy) Benzoate (DIME)," Intl. J. Oncol.,in press; Bauer et al., 1996, "Modification of Growth Related Enzymatic Pathways and Apparent Loss of Tumorigenicity of a ras-Transformed Bovine Endothelial Cell Line" by Treatment With 5-iodo-6-amino-1,2-benzopyrone (INH BP).

[5] = tested on: microtubule protein (MTP); assay: Microtubule protein (MTP) polymerization optical test; assay type: biochemical, bovine or rabbit
Method: Preparation of MTP and an optical test for polymerization was adopted from published methods, Gaskin, et al., 1974, "Turbidimetric studies of the in vitro assembly and disassembly of porcine neurotubules", J. Mol. Biol. 89:737-758; Tiwari, et al., 1993, "A pH and temperature-dependent cycling method that doubles the yield of microtubule protein", Anal. Biochem. 215:96-103. Bovine or rabbit brain was homogenized in an equal volume of ice cold buffer containing 100 mM Pipes/K^+ (pH 7.4), 4 mM EGTA, 1 mM MgCl2, 0.5 mM DTT and 0.1 mM PMSF, and centrifuged at 39,000 g for 1 hour at 4° C. To the supernatant, DMSO (8% final concentration) and GTP (1 mM final concentration) were added, followed by incubation at 37° C. for 30 minutes. Microtubules were pelleted at 100,000 g at 37° C for 30 minutes. The pellets were incubated on ice for 15 minutes, followed by resuspension in ice cold PEM buffer (100 mM Pipes/K+(pH 6.9), 1 mM EGTA, 1 mM MgCl2). This warm polymerization and cold depolymerization cycle was repeated once more and the cold, resuspended monomeric MTP (8-10 mg/ml protein) was used for the optical test for polymerization kinetics. Both rabbit or bovine brain yielded identical MTP preparations.
The composition of the optical test is described in the legends of Figures and Table 12. The polymerization reaction was started by the addition of 100 μl of MTP solution (equivalent to 0.8-1.0 mg protein) and initial linear rates of increase in absorbance at 350 nm followed and recorded at 37° C. (see FIG. 1) in a Perkin-Elmer 552 double beam spectrophotometer, equipped with a thermostatically controlled cuvette holder.
[…] Microtubule assembly at 37° C. was monitored at λ=350 nm and initial velocities were calculated as mA350 /min. […] The values are averages of duplicate assays.

COC(=O)c1cc(I)c(Oc2ccc(OC)cc2)c(I)c1 [Compound 1, Methyl 3,5-diiodo-4-(4'-methoxyphenoxy)benzoate]
inhibition of uptake of iodine into the thyroid [1]: 15%
Activity/5 min (initial velocity of histone H1 dephosphorylation) ([2]; control 10217 ± 1708, average of three samples): 24655 ± 8600 cpm
increase of Vinit of histone H1 dephosphorylation [2]: more than doubles Vinit
ester bond cleavage by A-549 cells ([3]; A-549 cells): readily cleave the ester bond
esterase induction ([3]; intact cells preincubated 24 hours with 1 μM DIME): esterase is not induced by DIME
cell morphology ([4]; 4 μM, 18-24 hrs, E-ras 20 cells): tumor cells enlarged and, as especially visible at 300-fold magnification, numerous micronuclei appeared
micronucleation ([4]; 10 μM, 3 days): induced extensive micronucleation
decrease of Vmax ([5]; 1 μM DIME): ~50%
type of inhibition of MTP polymerization ([5]; 1 μM DIME, versus GTP): "mixed" type inhibition
Km ([5]; 1 μM DIME, 6.7 μM without drug, read-out: km GTP): 14 µM
Percent inhibition of initial velocity of microtubule assembly ([5]; 10 μM, 1 mM GTP, 37° C.): 93%
inhibition of GTP-dependent polymerization of MTP ([5]; 1 to 5 μM): inhibits the GTP-dependent polymerization of MTP
